In article PMC3556730 (Neuropharmacology, 2011):
Like-named read-outs stand apart in the source and are kept apart here.

How the values were obtained:
5-HT2AR [1] = target: 5-HT2AR (Mus musculus, UniProt P35363); assay: [3H]Ketanserin competition binding, mouse striatum membranes
5-HT2AR [2] = target: T1, 5-HT2AR (Homo sapiens, UniProt P28223)
5-HT2AR [3] = target: T1, 5-HT2AR; conditions: HEK-5HT2AR
5-HT2AR [4] = target: T1, 5-HT2AR; conditions: HEK-5HT2AR; vehicle; mean ± SEM
5-HT2AR [5] = target: T1, 5-HT2AR; conditions: for Emax (inositol phosphate production): HEK-5HT2AR-D2R, mean ± SEM; for Effect on 5-HT-induced 5-HT2AR-IP3 production / Effect on DOI-induced 5-HT2AR-IP3 production: co-expressing cells, D2R agonist 10^−5 M
[6] = test system: MK-801-induced locomotor activity; assay: MK-801-induced locomotor activity in wild-type and 5-HT2AR-KO mice; assay type: in vivo; conditions: MK-801 0.5 mg/kg i.p.; wild-type and 5-HT2AR-KO mice (similar)
[7] = mouse striatum, with quinpirole (10^−5 M)

5-HT2AR (Mus musculus, UniProt P35363), sequence (P35363 whole entry): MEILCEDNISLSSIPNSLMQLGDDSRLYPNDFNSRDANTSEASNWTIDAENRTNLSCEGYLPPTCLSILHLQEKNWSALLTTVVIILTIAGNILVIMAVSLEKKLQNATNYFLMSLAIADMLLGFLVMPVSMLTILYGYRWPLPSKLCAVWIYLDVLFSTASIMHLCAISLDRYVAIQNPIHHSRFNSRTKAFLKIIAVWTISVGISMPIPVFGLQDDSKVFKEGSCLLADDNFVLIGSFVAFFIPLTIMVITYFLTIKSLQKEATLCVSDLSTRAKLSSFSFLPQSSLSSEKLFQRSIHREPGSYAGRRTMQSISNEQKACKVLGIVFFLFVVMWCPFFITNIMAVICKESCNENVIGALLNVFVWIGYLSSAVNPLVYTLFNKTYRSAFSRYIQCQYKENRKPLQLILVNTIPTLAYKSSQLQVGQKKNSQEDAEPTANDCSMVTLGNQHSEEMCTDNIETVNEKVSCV
T1 sequence (P28223 whole entry): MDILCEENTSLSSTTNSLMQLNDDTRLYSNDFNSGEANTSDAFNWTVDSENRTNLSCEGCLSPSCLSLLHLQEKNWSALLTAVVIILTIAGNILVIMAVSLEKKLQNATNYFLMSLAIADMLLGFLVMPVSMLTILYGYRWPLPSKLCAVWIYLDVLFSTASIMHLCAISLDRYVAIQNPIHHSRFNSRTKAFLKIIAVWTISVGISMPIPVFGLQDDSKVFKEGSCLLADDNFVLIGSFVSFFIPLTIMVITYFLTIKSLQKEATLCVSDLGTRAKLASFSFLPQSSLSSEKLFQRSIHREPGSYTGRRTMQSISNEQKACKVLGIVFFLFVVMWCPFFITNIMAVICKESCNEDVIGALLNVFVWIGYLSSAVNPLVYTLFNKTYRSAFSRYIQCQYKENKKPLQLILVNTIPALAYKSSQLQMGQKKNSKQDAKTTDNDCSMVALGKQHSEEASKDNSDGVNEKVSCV

COc1cc(CC(C)N)c(OC)cc1I (racemic) [DOI, (+/−)-2,5-dimethoxy-4-iodoamphetamine]
Ki (5-HT2AR [1]; Fig. 1C single experiment, control, one-site model): 95 nM | Ki (5-HT2AR [1]; Fig. 1D single experiment, control, one-site model): 3300 nM | % High (percentage of high-affinity binding sites) (5-HT2AR [1]; [7]): 44 ± 2% | Ki (5-HT2AR [1]; read-out: Ki-high, mouse striatum, with quinpirole (10^−5 M), two-site model, mean ± SEM): 0.065 nM | Ki (5-HT2AR [1]; read-out: Ki-low, mouse striatum, vehicle, one-site model, mean ± SEM): 250 nM | Ki (5-HT2AR [1]; read-out: Ki-low, mouse striatum, with quinpirole (10^−5 M) + raclopride (10^−6 M), one-site model, mean ± SEM): 690 nM | Ki (5-HT2AR [1]; read-out: Ki-low, mouse striatum, with quinpirole (10^−5 M), two-site model, mean ± SEM): 510 nM | Ki (5-HT2AR [1]; read-out: Ki-low, mouse striatum, with raclopride (10^−6 M), one-site model, mean ± SEM): 660 nM | % High (percentage of high-affinity binding sites) (5-HT2AR [2]; HEK-5HT2AR-D2R, with quinpirole (10^−5 M)): 46 ± 3% | % High (percentage of high-affinity binding sites) (5-HT2AR [3]; vehicle): 41 ± 5% | % High (percentage of high-affinity binding sites) (5-HT2AR [3]; with quinpirole (10^−5 M)): 48%

NCCc1c[nH]c2ccc(O)cc12 [5-HT, serotonin]
Emax (inositol phosphate production) (5-HT2AR [4]): 647 ± 74 cpm | Emax (inositol phosphate production) (5-HT2AR [5]; vehicle): 608 ± 12 cpm | Emax (inositol phosphate production) (5-HT2AR [5]; with quinpirole (10^−5 M)): 589 ± 22 cpm | Emax (inositol phosphate production) (5-HT2AR [5]; with ropinirole (10^−5 M)): 564 ± 47 cpm

C[C@]12N[C@H](Cc3ccccc31)c1ccccc12 [MK-801, dizocilpine]
Locomotor activity [6]: increased locomotor activity

CCCN1CCC[C@@H]2Cc3n[nH]cc3C[C@H]21 [quinpirole]
Effect on affinity of DOI for 5-HT2AR (5-HT2AR [1]; mouse striatum, modulator 10^−5 M): significantly higher | Effect on affinity of DOI for 5-HT2AR (5-HT2AR [2]; HEK293 co-expressing 5-HT2AR and D2R, modulator 10^−5 M): marked increase | Effect on 5-HT-induced 5-HT2AR-IP3 production (5-HT2AR [5]): have no effect | Effect on DOI-induced 5-HT2AR-IP3 production (5-HT2AR [5]): decrease

CCN1CCC[C@H]1CNC(=O)c1c(O)c(Cl)cc(Cl)c1OC [raclopride]
Effect on quinpirole-enhanced DOI affinity for 5-HT2AR (5-HT2AR [1]; [7]): prevents the enhanced effect

CCCN(CCC)CCc1cccc2c1CC(=O)N2 [ropinirole]
Effect on 5-HT-induced 5-HT2AR-IP3 production (5-HT2AR [5]): have no effect | Effect on DOI-induced 5-HT2AR-IP3 production (5-HT2AR [5]): decrease
